Entries after “also recorded” stand apart in the source; their conditions may differ.
Columns and labels:
MLL-UBE2O interaction = MLL-UBE2O interaction (HaloTag purification, MudPIT, co-immunoprecipitation); type: cell-based, human; design: dose or concentration left out as unconfirmed; conditions: Halo-MLL-Inter-transfected HEK293 cells
Description: (§1) FIG. 3. […] (D) Halo-MLL-Inter-transfected HEK293 cells were treated with […]/4 inhibitor for 24 hr, purified with HaloLink resin, and subjected to MudPIT analysis. […] Each row represents a peak of MLL occupancy (n=6,250), with rows ordered by decreasing MLL occupancy in the inhibitor-treated condition. […] Boxplots depict the read coverage for all MLL peaks. The p value was calculated with the Wilcoxon signed-rank test. See also FIG. 10.

MDS and T-ALL cells = conditions: subset of MDS and T-ALL cells with high expression of IRAK1; cited from earlier work
SEM and REH cells = assay: Total RNA-seq, SEM versus REH cells; type: cell-based, human; conditions: 2 days of treatment
Description: Total RNA Sequencing. […] Total RNA was extracted from Trizol according to the manufacturer's instructions. The RNA was treated with DNase I (NEB) and cleaned with the QIAGEN RNeasy mini kit. 500 ng RNA was used for library preparation with TruSeq Stranded Total RNA with Ribo-Zero Gold kit (Illumina, RS-123-2201). The sequenced reads were aligned to the human genome (UCSC hgl9) with TopHat 2.1.0 using gene annotations from Ensembl 72. Differential gene expression was performed with EdgeR (Empirical analysis of digital gene expression data in R) version 3.08 (Robinson et al., 2010). Adjusted p values were computed using the Benjamini-Hochburg method. […] P values for Venn diagrams were performed with the hypergeometric test.

endogenous MLL protein = assay: MLL protein levels / stability in HEK293 cells (western blotting, cycloheximide chase); type: cell-based, human; design: dose or concentration left out as unconfirmed; conditions: for indicated times or different concentrations for 24 hr, relative to DMSO
MLL occupancy = assay: MLL ChIP-seq in HEK293 cells; type: cell-based, human
Description: as §1
FIG. 10. […] Occupancy in reads per million (rpm)±3 kb around the center of peak is shown (N=6250). Genes are ordered by MLL occupancy in the inhibitor treatment. […] The read counts of all the MLL peaks were plotted and the Wilcoxon signed-rank test was used to calculate the p value (F).
Chromatin Immunoprecipitation Sequencing. […] ChIP-seq reads were aligned to the mouse (UCSC mm9) or human genome (UCSC hg19). Alignments were processed with Bowtie version 1.1.2, allowing only uniquely mapping reads with up to two mismatches within the 50 bp read. The resulting reads were extended to 150 bases toward the interior of the sequenced fragment and normalized to total reads aligned (reads per million, rpm). […] The average coverage (calculated using rpm tracks described above) across the entire region is shown in the boxplots where p values were calculated with the Wilcoxon signed-rank test. […]

MLL-AF9 leukemia = assay: Murine MLL-AF9 leukemia transplantation model; type: in vivo, C57BL/6 mice; conditions: treatment from day 10 after transplantation; IRAK1/4 inhibitor 8 mg/kg, IRAK4 inhibitor 75 mg/kg i.p. every other day; vehicle mice all dead by 31 days
Description: After transformation of MLL-AF9, c-Kit+ HSPCs were transplanted into lethally irradiated C57BL/6 mice with 1 3 106 transformed cells and 2 3 105 support cells. Leukemia cells from primary AML mice were isolated and transplanted into sublethally irradiated C57BL/6 mice. Drug treatments were started at day 10 or 19 after transplantation. (B) Kaplan-Meier survival curves of secondary transplanted C57BL/6 mice after vehicle and IRAK1/4 or IRAK4 inhibitor treatment at day 19 (blast phase). Vehicle or IRAK inhibitors were administered every other day by intraperitoneal injection for a total of five treatments. Leukemia was confirmed at the endpoint for each transplant mouse. […] The p values were calculated using the log rank test. […] The p values were calculated using the log rank test. […]
We further assessed the effects of the IRAK inhibitors in vivo using the murine MLL-AF9 leukemia transplantation model (FIG. 7A) (Volk et al., 2014). […]
Murine MLL-AF9 Leukemia Model. […] The mice were monitored for signs of acute leukemia for 2-3 months and euthanized when leukemia was evident (weight loss below 16.75 g, reduced mobility, malaise, palpable spleen, and hunched back). […]
Animal Treatment. […] Mice were monitored for leukemia development and leukemia was verified after the mice were sacrificed upon signs of illness (weight loss below 16.75 g, partial paralysis, malaise, palpable spleen, and hunched back).

REH cells = assay: REH cell proliferation (trypan blue, Vi-CELL XR); type: cell-based, human; conditions: IRAK1/4 inhibitor
Description: FIG. 4. […] Viable cells were seeded at 0.2 million/mL, and they were monitored by trypan blue exclusion staining and counted using a Vi-CELL XR cell counter. Data are represented as mean±SD (n=3). […] Data are represented as mean±SD (n=3). (C) Venn diagram of deregulated genes in SEM cells by IRAK1/4 and IRAK4 inhibitors. […] (D) Venn diagram of deregulated genes in SEM and REH cells by both inhibitors. Little overlap was observed between REH and SEM cells. […] Each cluster is represented by different colors and a circle node represents each enriched term. (G) UBE2O depletion and IRAK inhibition affect a common subset of genes in SEM cells. […] Heatmaps represent Z score-normalized values. See also FIG. 11.
Stabilization of MLL through IRAK Inhibition and UBE2O Depletion Regulates a Specific Gene Regulatory Network in MLL Leukemia. To measure the consequence of stabilizing MLL in MLL leukemia cells, we determined the effects of IRAK inhibition on cell proliferation of REH (MLL-germline leukemia) and SEM (MLL-AFF1) cells. Both of these cell lines are derived from precursor B cell ALL patient blast cells, and, therefore, they have been studied when comparing non-MLL (REH) and MLL-dependent (SEM) leukemia gene expression (Guenther et al., 2008).

Human IRAK4 = molecular target: T1, Human IRAK4 (Homo sapiens, UniProt Q9NWZ3); assay: IRAK4 kinase inhibition assay (ADP-Glo); type: biochemical; conditions: for Inhibition of IRAK4 kinase activity: 100 uM of each inhibitor, 12.5 uM ATP, relative activity to DMSO (FIG. 15); for IRAK4 kinase inhibition: at increasing concentration (FIG. 16B)
T1 sequence (Q9NWZ3 1-460): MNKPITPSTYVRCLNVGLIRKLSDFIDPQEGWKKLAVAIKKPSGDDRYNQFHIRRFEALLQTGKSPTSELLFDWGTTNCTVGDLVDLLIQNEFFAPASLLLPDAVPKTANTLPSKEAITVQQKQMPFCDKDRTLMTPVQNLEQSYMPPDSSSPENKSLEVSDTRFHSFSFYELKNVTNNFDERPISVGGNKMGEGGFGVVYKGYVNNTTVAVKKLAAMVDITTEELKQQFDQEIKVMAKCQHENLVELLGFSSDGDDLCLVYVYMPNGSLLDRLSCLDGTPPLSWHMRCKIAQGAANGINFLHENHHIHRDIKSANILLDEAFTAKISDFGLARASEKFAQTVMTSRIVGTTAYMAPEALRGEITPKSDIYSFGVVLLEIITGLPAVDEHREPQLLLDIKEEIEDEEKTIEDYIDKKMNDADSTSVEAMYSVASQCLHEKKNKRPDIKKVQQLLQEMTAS
Description: FIG. 15. Inhibition of IRAK4 kinase activity by NU's IRAK4 kinase inhibitors. 10 ng IRAK4, 12.5 uM ATP and 500 ng MBP (substrate) were used in the IRAK4 kinase assay. 100 uM of each inhibitor were used individual in the assay and the reaction product ADP was detected by the ADP-GLO assay. Relative activity to DMSO is shown.
(§2) FIG. 16. Development of novel compounds (NUCC0200618 and NUCC0200554) that stabilize the wild-type MLL protein and slow leukemic cell growth through IRAK4 inhibition. A) Western blotting for MLL protein levels in cells treated with the indicated compounds designed and synthesized at Northwestern. Protein stabilization is observed to increase by 6 hours of treatment. B) Luciferase-based IRAK4 kinase assays (Promega) with the indicated doses of the new compounds. C) Cell viability counts after 3 days of treatment with the indicated doses of the new compounds.
The newly synthesized compounds were tested in an IRAK4 kinase inhibition assay as follows. In a 10 μl reaction, 10 ng Human IRAK4, 12.5 μM ATP, 500 ng dephosphorylated MBP (EMD Millipore), and different IRAK inhibitors were used in 1× kinase buffer (60 mM HEPES-NaOH, pH 7.5, 3 mM MgCl2, 3 mM MnCl2, 1.2 mM DTT, 0.1% BSA) at room temperature for 45 minutes. The ADP formed from the kinase reaction was measured by the ADP-Glo™ Kinase Assay (Cat.#V9101) and the luminescence was measured with a Tecan Infinite M1000 plate reader.

SEM cells = assay: RNA-seq gene expression profiles of SEM cells, new versus commercial IRAK inhibitors; type: cell-based, human; conditions: 3 days
Excerpt: FIG. 17. Comparison of novel IRAK4 inhibitors (NUCC numbers) with commercially available IRAK inhibitors (referred to here as IRAK1/4 and IRAK4) on gene expression in leukemia cells as determined by RNA-seq. SEM cells were maintained in IMDM medium with 10% FBS. […] SEM cells were harvested and used for total RNA-seq. A: PCA plot of each group with different treatments. […] B: Distance plot of each group with the indicated treatments.
The gene expression profiles of SEM cells treated with newly synthesized compound NUCC0200554 (Compound 16 of Example 2) and compound NUCC0200618 (Compound 21 of Example 2) as follows. After inhibitor treatment for 3 days, SEM cells were collected and lysed with Trizol reagent. Total RNA was extracted from Trizol according to the manufacturer's instructions. The RNA was treated with DNase I (NEB) and cleaned with the Qiagen RNeasy mini kit. 500 ng RNA was used for library preparation with TruSeq Stranded Total RNA with Ribo-Zero Gold kit (Illumina, RS-123-2201). The sequenced reads were aligned to the human genome (UCSC hgl9) with TopHat 2.1.0 using gene annotations from Ensembl 72. Differential gene expression was performed with Deseq2.

wild-type MLL protein = assay: MLL stabilization assay (western blotting) with new compounds; type: cell-based; conditions: western blotting for MLL protein levels (FIG. 16A)
Description: as §2
The newly synthesized compound NUCC0200554 (Compound 16 of Example 2) and compound NUCC0200618 (Compound 21 of Example 2) were further tested in MLL stabilization assay, in an IRAK4 kinase activity as described above, and in a SEM cell proliferation assay as follows. SEM (ACC-546) leukemia cells were maintained in Iscove's Modified Dulbecco's Medium (IMDM) with 10% FBS. Viable SEM cells were seeded at 0.2 million/ml, and treated with different concentrations of inhibitors at the indicated concentrations for three days. Viable cells were monitored by trypan blue exclusion staining and counted using a Vi-CELL XR cell counter. Data are represented as Mean±SD (n=3).

SMILES | MLL-UBE2O interaction (MLL-UBE2O interaction) | effect of IRAK1/4 inhibitor alone (MDS and T-ALL cells) | sensitization to BCL2 inhibitor treatment (MDS and T-ALL cells) | genes downregulated in both REH and SEM cells (SEM and REH cells) [genes] | genes upregulated in both REH and SEM cells (SEM and REH cells) [genes] | MLL protein levels (MLL N320) (endogenous MLL protein) | MLL protein levels (MLL N320) (endogenous MLL protein; listed as IRAK1/4 inhibitor I) | genome-wide MLL occupancy (MLL occupancy; HEK293 cells, 6,250 MLL peaks) | MLL occupancy at MLL target genes HOXA, HOXC, FOXC1 (MLL occupancy; HEK293 cells, 24 hr, D2M7U and NT86 antibodies) | mice that still did not develop MLL-AF9 leukemia as of day 55 (MLL-AF9 leukemia) | REH cell proliferation (REH cells) | Inhibition of IRAK4 kinase activity (Human IRAK4) | IRAK4 kinase inhibition (Human IRAK4) | PCA plot grouping of RNA-seq profile (SEM cells; 10 uM) | MLL stabilization (wild-type MLL protein) | PCA plot grouping of RNA-seq profile (SEM cells; 5 uM)
O=C(Nc1nc2ccccc2n1CCN1CCOCC1)c1cccc([N+](=O)[O-])c1 [IRAK1/4 inhibitor] | substantially decreased; also recorded: decreases MLL-UBE2O interaction | does not substantially impair these cells | sensitize a subset of MDS and T-ALL cells | 238 | 186 | stabilizes endogenous MLL protein; also recorded: stabilizes MLL protein from proteasomal degradation in a dose-dependent manner | increased levels of MLL protein in a time- and dose-dependent manner | significant increases in MLL occupancy; also recorded: MLL occupancy is significantly increased; also recorded: general increase in MLL occupancy | enhanced MLL occupancy; also recorded: increases MLL occupancy at HOXA and HOXC loci; also recorded: increased MLL occupancy | eight of ten | no effect |  |  |  |  | 
Nc1cccc(-c2cnc(NC(=O)c3cccc(Cl)c3)[nH]2)c1 [NUCC0200554, N-(5-(3-aminophenyl)-1H-imidazol-2-yl)-3-chlorobenzamide] |  |  |  |  |  |  |  |  |  |  |  | inhibit IRAK4 kinase activity | inhibit IRAK4 kinase | very similar profiles | stabilize MLL | 
O=C(Nc1ncc(-c2cccc(O)c2)[nH]1)c1ccccc1 [NUCC0200618, N-(5-(3-hydroxyphenyl)-1H-imidazol-2-yl)benzamide] |  |  |  |  |  |  |  |  |  |  |  | inhibit IRAK4 kinase activity | inhibit IRAK4 kinase | group together | stabilize MLL | very similar profiles

From patent US10059708B2, “Therapeutic targeting of the interleukin 1 receptor-associated kinase 4 (IRAK4) in leukemias characterized by rearrangements in the mixed lineage leukemia gene (MLL-r)” (Northwestern University, priority 2016, dated 2018)
